# Measurements as given in patent US9290788B2, “Device for determining or studying the state of stimulation of the natural defences of plants or portions of plants” (Institut National De La Recherche Agronomique, priority 2010, dated 2016).
# Test system: 28 target genes (defense genes) in apple tree leaves
# Assay: Test 1: relative expression of the 28 defense genes (qPCR, ΔΔCt) in apple tree seedling leaves subjected to NDS treatments and abiotic stresses
# Type: in vivo, apple tree seedlings (Golden Delicious)
# Conditions: for Relative expression of ANS / Relative expression of PAL / Relative expression of PR-1 / Relative expression of PR-2 / Relative expression of PR-4 / Relative expression of PR-5 / Relative expression of PR-8 / Relative expression of PR-14 / Relative expression of PR-15: vs water control
# [1] = +H2O2, J2, relative to water control
# [2] = +H2O2, J3, relative to water control
# [3] = +H2O2 (sprayed 24 hours after treatment), J2
# [4] = +H2O2 (sprayed 24 hours after treatment), J3
# [5] = −H2O2, J2, relative to water control
# [6] = −H2O2, J3, relative to water control
structure (smiles),measurement,setting,value
"CC/C=C\CC1C(=O)CCC1CC(=O)OC (stereo not shown) [MeJA, methyl jasmonate]",Relative expression ACCO (log base 2),[1],3.48
same,Relative expression APOX (log base 2),[1],1.87
same,Relative expression CAD (log base 2),[1],0.70
same,Relative expression CHS (log base 2),[1],3.73
same,Relative expression CSL (log base 2),[1],2.26
same,Relative expression CalS (log base 2),[1],0.48
same,Relative expression DFR (log base 2),[1],3.43
same,Relative expression EDS1 (log base 2),[1],−0.17
same,Relative expression EIN3 (log base 2),[1],2.54
same,Relative expression FPPS (log base 2),[1],−0.07
same,Relative expression Far (log base 2),[1],0.74
same,Relative expression GST (log base 2),[1],0.47
same,Relative expression HMGR (log base 2),[1],−0.38
same,Relative expression JAR (log base 2),[1],0.73
same,Relative expression LOX2 (log base 2),[1],1.51
same,Relative expression POX (log base 2),[1],2.84
same,Relative expression PPO (log base 2),[1],0.80
same,Relative expression Pect (log base 2),[1],−2.02
same,Relative expression WRKY (log base 2),[1],−0.06
same,Relative expression ACCO (log base 2),[2],2.28
same,Relative expression APOX (log base 2),[2],2.11
same,Relative expression CAD (log base 2),[2],0.35
same,Relative expression CHS (log base 2),[2],1.47
same,Relative expression CSL (log base 2),[2],1.46
same,Relative expression CalS (log base 2),[2],1.48
same,Relative expression DFR (log base 2),[2],1.36
same,Relative expression EDS1 (log base 2),[2],0.98
same,Relative expression EIN3 (log base 2),[2],1.80
same,Relative expression FPPS (log base 2),[2],0.43
same,Relative expression Far (log base 2),[2],0.39
same,Relative expression GST (log base 2),[2],0.87
same,Relative expression HMGR (log base 2),[2],0.60
same,Relative expression JAR (log base 2),[2],1.61
same,Relative expression LOX2 (log base 2),[2],1.99
same,Relative expression POX (log base 2),[2],4.29
same,Relative expression PPO (log base 2),[2],1.23
same,Relative expression Pect (log base 2),[2],2.16
same,Relative expression WRKY (log base 2),[2],3.46
same,Relative expression of ANS,[3],3.29 log2
same,Relative expression of PAL,[3],3.36 log2
same,Relative expression of PR-1,[3],0.40 log2
same,Relative expression of PR-2,[3],3.89 log2
same,Relative expression of PR-4,[3],1.25 log2
same,Relative expression of PR-5,[3],−2.09 log2
same,Relative expression of PR-8,[3],1.41 log2
same,Relative expression of PR-14,[3],−0.64 log2
same,Relative expression of PR-15,[3],3.20 log2
same,Relative expression of ANS,[4],1.44 log2
same,Relative expression of PAL,[4],2.01 log2
same,Relative expression of PR-1,[4],2.84 log2
same,Relative expression of PR-2,[4],0.68 log2
same,Relative expression of PR-4,[4],2.84 log2
same,Relative expression of PR-5,[4],−1.22 log2
same,Relative expression of PR-8,[4],1.51 log2
same,Relative expression of PR-14,[4],3.68 log2
same,Relative expression of PR-15,[4],2.77 log2
same,Relative expression of ANS,"−H2O2, J2",2.31 log2
same,Relative expression of PAL,"−H2O2, J2",3.17 log2
same,Relative expression of PR-1,"−H2O2, J2",1.56 log2
same,Relative expression of PR-2,"−H2O2, J2",4.03 log2
same,Relative expression of PR-4,"−H2O2, J2",2.68 log2
same,Relative expression of PR-5,"−H2O2, J2",−0.59 log2
same,Relative expression of PR-8,"−H2O2, J2",1.85 log2
same,Relative expression of PR-14,"−H2O2, J2",3.45 log2
same,Relative expression of PR-15,"−H2O2, J2",−0.19 log2
same,Relative expression of ANS,"−H2O2, J3",1.58 log2
same,Relative expression of PAL,"−H2O2, J3",1.66 log2
same,Relative expression of PR-1,"−H2O2, J3",2.35 log2
same,Relative expression of PR-2,"−H2O2, J3",3.69 log2
same,Relative expression of PR-4,"−H2O2, J3",2.63 log2
same,Relative expression of PR-5,"−H2O2, J3",1.49 log2
same,Relative expression of PR-8,"−H2O2, J3",1.00 log2
same,Relative expression of PR-14,"−H2O2, J3",5.09 log2
same,Relative expression of PR-15,"−H2O2, J3",1.21 log2
same,Relative expression ACCO (log base 2),[5],1.92
same,Relative expression APOX (log base 2),[5],−3.00
same,Relative expression CAD (log base 2),[5],1.52
same,Relative expression CHS (log base 2),[5],2.97
same,Relative expression CSL (log base 2),[5],2.29
same,Relative expression CalS (log base 2),[5],0.05
same,Relative expression DFR (log base 2),[5],2.92
same,Relative expression EDS1 (log base 2),[5],1.91
same,Relative expression EIN3 (log base 2),[5],3.82
same,Relative expression FPPS (log base 2),[5],0.00
same,Relative expression Far (log base 2),[5],2.34
same,Relative expression GST (log base 2),[5],1.00
same,Relative expression HMGR (log base 2),[5],1.49
same,Relative expression JAR (log base 2),[5],1.25
same,Relative expression LOX2 (log base 2),[5],1.60
same,Relative expression POX (log base 2),[5],0.66
same,Relative expression PPO (log base 2),[5],1.28
same,Relative expression Pect (log base 2),[5],0.98
same,Relative expression WRKY (log base 2),[5],1.25
same,Relative expression ACCO (log base 2),[6],1.96
same,Relative expression APOX (log base 2),[6],0.95
same,Relative expression CAD (log base 2),[6],0.01
same,Relative expression CHS (log base 2),[6],1.22
same,Relative expression CSL (log base 2),[6],1.81
same,Relative expression CalS (log base 2),[6],1.14
same,Relative expression DFR (log base 2),[6],1.55
same,Relative expression EDS1 (log base 2),[6],1.22
same,Relative expression EIN3 (log base 2),[6],1.22
same,Relative expression FPPS (log base 2),[6],0.13
same,Relative expression Far (log base 2),[6],1.51
same,Relative expression GST (log base 2),[6],−0.15
same,Relative expression HMGR (log base 2),[6],1.16
same,Relative expression JAR (log base 2),[6],0.63
same,Relative expression LOX2 (log base 2),[6],1.45
same,Relative expression POX (log base 2),[6],3.86
same,Relative expression PPO (log base 2),[6],0.78
same,Relative expression Pect (log base 2),[6],3.87
same,Relative expression WRKY (log base 2),[6],0.85
